Experimental data as given in patent US8592422B2, “Bicyclic triazole and pyrazole lactams as allosteric modulators of mGluR5 receptors” (Vanderbilt University, priority 2010, dated 2013).

Target: T1, human mGluR5a receptor (Homo sapiens, UniProt P41594)
T1 construct: cDNA subcloned into pcDNA3.1(-)
Experiment: Cell-based functional Ca2+ mobilization assay (FDSS), potentiation of glutamate EC20 response
Conditions: for pEC50 / EC50: HEK cells transfected with human mGluR5 (H10H or H12H), in presence of EC20 glutamate; for EC50: read-out: EC50; for Emax (%) / Emax: maximum % effect in concentration-response curve, as percent of response to maximally effective glutamate
Experimental: Human embryonic kidney (HEK) cells transfected with rat mGluR5 were plated in clear bottom assay plates for assay in a Functional Drug Screening System (FDSS). In the alternative assay, HEK cells transfected with human mGluR5 were plated for assay in the FDSS. In some cases the HEK cells transfected with human mGluR5 were the H10H cell line. Alternatively, the HEK cells transfected with human mGluR5 were the H12H cell line. […] The cells were loaded with a Ca^2+-sensitive fluorescent dye (e.g., Fluo-4), and the plates were washed and placed in the FDSS instrument. After establishment of a fluorescence baseline for twelve seconds, the compounds of the present invention were added to the cells, and the response in cells was measured. Alternatively, in various further aspects, after establishment of a fluorescence baseline for about three seconds, the compounds of the present invention were added to the cells, and the response in cells was measured. Five minutes later, an mGluR5 agonist (e.g., glutamate, 3,5-dihydroxyphenylglycine, or quisqualate) was added to the cells, and the response of the cells was measured.
The above described assay operated in two modes. In the first mode, a range of concentrations of the present compounds were added to cells, followed by a single fixed concentration of agonist. If a compound acted as a potentiator, an EC50 value for potentiation and a maximum extent of potentiation by the compound at this concentration of agonist was determined by non-linear curve fitting. In the second mode, several fixed concentrations of the present compounds were added to various wells on a plate, followed by a range of concentrations of agonist for each concentration of present compound; the EC50 values for the agonist at each concentration of compound were determined by non-linear curve fitting. A decrease in the EC50 value of the agonist with increasing concentrations of the present compounds (a leftward shift of the agonist concentration-response curve) is an indication of the degree of mGluR5 potentiation at a given concentration of the present compound. An increase in the EC50 value of the agonist with increasing concentrations of the present compounds (a rightward shift of the agonist concentration-response curve) is an indication of the degree of mGluR5 antagonism at a given concentration of the present compound. The second mode also indicates whether the present compounds also affect the maximum response to mGluR5 to agonists.
The mGluR5 activity was determined using the metabotropic glutamate receptor activity assays in human embryonic kidney cells as described herein, wherein the human embryonic kidney cells were transfected with human mGluR5. The compounds in Table 1 were synthesized with methods identical or analogous to those shown herein. The requisite starting materials were commercially available, described in the literature, or readily synthesized by one skilled in the art of organic synthesis. The compound number given in Table I corresponds to the compound number in Table II and the structure given therein.
Human mGluR5a cDNA in pCMV6-XL6 mammalian expression plasmid was purchased from OriGene Technologies, Inc. (catalogue number SC326357) and subcloned into pcDNA3.1(−). Human embryonic kidney (HEK) 293A cells were then transfected with human mGluR5a pcDNA3.1(−) using LipofectAmine-2000 (Invitrogen) and monoclones were selected and tested for functional response using a Ca^2+ mobilization assay. Monoclones were named for the species (“H” for human) plus the location on the plate (e.g. “10H”).
HEK cells transfected with the human mGluR5a receptor (H10H or H12H cell line) were plated at 15,000 cells/well in clear-bottomed poly-D-lysine-coated assay plates (BD Falcon) in glutamate-glutamine-free growth medium and incubated overnight at 37° C. and 5% CO2.

T1 sequence (P41594 21-1180 isoform P41594-2 limits assumed): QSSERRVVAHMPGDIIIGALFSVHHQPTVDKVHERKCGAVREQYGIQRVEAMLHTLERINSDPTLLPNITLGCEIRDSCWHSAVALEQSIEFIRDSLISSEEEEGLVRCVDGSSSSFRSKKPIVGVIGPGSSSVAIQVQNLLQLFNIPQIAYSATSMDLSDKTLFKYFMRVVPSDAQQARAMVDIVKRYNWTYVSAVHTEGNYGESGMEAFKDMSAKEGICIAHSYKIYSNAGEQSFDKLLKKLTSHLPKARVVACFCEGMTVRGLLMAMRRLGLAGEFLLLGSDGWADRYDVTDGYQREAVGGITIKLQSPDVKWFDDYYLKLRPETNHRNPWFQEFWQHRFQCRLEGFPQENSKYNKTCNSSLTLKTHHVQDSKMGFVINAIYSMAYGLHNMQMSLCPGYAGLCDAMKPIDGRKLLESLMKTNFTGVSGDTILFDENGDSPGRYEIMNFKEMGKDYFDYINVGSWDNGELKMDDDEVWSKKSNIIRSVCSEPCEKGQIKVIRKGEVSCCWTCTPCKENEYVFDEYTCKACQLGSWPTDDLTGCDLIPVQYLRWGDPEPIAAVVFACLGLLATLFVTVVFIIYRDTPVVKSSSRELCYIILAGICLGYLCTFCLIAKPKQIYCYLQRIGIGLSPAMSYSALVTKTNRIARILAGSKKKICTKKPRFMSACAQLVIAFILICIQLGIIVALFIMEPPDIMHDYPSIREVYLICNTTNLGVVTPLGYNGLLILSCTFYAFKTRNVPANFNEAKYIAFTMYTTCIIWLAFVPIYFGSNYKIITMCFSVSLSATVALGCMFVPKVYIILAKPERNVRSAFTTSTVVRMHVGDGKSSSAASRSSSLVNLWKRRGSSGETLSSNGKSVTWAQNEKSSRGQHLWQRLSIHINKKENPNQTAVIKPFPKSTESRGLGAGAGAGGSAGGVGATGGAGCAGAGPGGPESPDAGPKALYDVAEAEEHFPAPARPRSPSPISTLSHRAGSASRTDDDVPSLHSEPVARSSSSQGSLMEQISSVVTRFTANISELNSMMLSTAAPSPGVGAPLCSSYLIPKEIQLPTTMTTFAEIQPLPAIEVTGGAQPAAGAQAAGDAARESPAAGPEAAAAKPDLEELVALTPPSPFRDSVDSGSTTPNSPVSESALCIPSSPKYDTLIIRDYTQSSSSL

Row | SMILES | pEC50 | EC50 | Emax (%) | Emax
1 | Nc1cccc(N2CCn3nc(COc4ccccc4)cc3C2=O)n1 [Example 285] | 6.13 | 741 nM | 68% | –
2 | O=C1c2cc(COc3ccccc3)nn2CCN1c1cccc(C2CC2)n1 [Example 66] | 7.03 | 93 nM | 72% | –
3 | O=C1c2cc(COc3ccccc3)nn2CCN1c1cnc2ccccc2c1 [Example 362] | – | 54 nM | – | 71%
4 | Cc1cc(F)ccc1N1CCn2nc(COc3ccccc3)cc2C1=O [Example 60] | 7.40 | 40 nM | 66% | –
5 | O=C1c2cc(COc3ccccc3O)nn2CCN1c1ccc(F)cn1 [Example 377] | <5.00 | > 10000 nM | 71% | –
6 | O=C1c2cc(COc3cncc(F)c3)nn2CCN1c1ccc(F)cc1 [Example 161] | – | 1320 nM | – | 68%
7 | Cn1ccn2nc(COc3ccccc3)cc2c1=O [Example 37] | – | 2070 nM | – | 74%
8 | Cc1cc(N2CCn3nc(COc4ccccc4)cc3C2=O)ccc1F [Example 52] | 7.58 | 26 nM | 68% | –
9 | Cc1cccc(N2CCn3nc(COc4ccc(F)cc4)cc3C2=O)c1 [Example 224] | 7.02 | 95 nM | 72% | –
10 | COc1ccc(N2CCn3nc(COc4ccccc4)cc3C2=O)cc1F [Example 58] | 6.92 | 120 nM | 58% | –
11 | Cc1nccc(N2CCn3nc(COc4ccccc4)cc3C2=O)n1 [Example 94] | 6.29 | 513 nM | 65% | –
12 | COc1ccccc1N1CCn2nc(COc3ccccn3)cc2C1=O [Example 214] | 5.97 | 1100 nM | 54% | –
13 | N#Cc1cccc(OCc2cc3n(n2)CCN(c2ccc(F)cc2)C3=O)c1 [Example 169] | 6.51 | 309 nM | 62% | –
14 | Cc1ccnc(N2CCn3nc(COc4ccccc4)cc3C2=O)n1 [Example 82] | 5.81 | 1550 nM | 61% | –
15 | O=C1c2c(Cl)c(COc3ccccc3)nn2CCN1CC1CC1 [Example 259] | <4.52 | > 30200 nM | 14% | –
16 | O=C1c2cc(COc3ccccc3)nn2CCN1c1ccc(F)cc1F [Example 3] | 6.94 | 115 nM | 101% | –
17 | O=C1c2cc(COc3ccccc3)nn2CC(CF)N1c1ccc(F)cc1 (stereo not shown) [Example 269] | 6.16 | 692 nM | 58% | –
18 | CN(C)c1nc(N2CCn3nc(COc4ccccc4)cc3C2=O)ccc1F [Example 305] | 7.40 | 40 nM | 71% | –
19 | CN(C)c1cccc(N2CCn3nc(COc4ccc(F)cc4)cc3C2=O)n1 [Example 317] | 7.38 | 42 nM | 66% | –
20 | COCc1ccccc1N1CCn2nc(COc3ccccc3)cc2C1=O [Example 63] | 6.37 | 430 nM | 68% | –
21 | Cc1nc2cc(N3CCn4nc(COc5ccccc5)cc4C3=O)ccc2s1 [Example 367] | 7.06 | 88 nM | 60% | –
22 | COc1nc(N2CCn3nc(COc4ccccn4)cc3C2=O)ncc1F [Example 209] | – | 525 nM | – | 62%
23 | Cc1cc(F)cnc1N1CCn2nc(COc3ccccc3)cc2C1=O [Example 86] | 6.69 | 204 nM | 73% | –
24 | CC1CN(c2ccc(F)cn2)C(=O)c2cc(COc3ccc(F)cc3)nn21 (racemic) [Example 237] | 6.70 | 200 nM | 52% | –

Row | SMILES | pEC50 | EC50 | Emax (%) | Emax
25 | Cc1ccnc(OCc2cc3n(n2)CCN(c2ccc(F)cc2)C3=O)c1F [Example 198] | 5.76 | 1740 nM | 61% | –
26 | Cc1nc(N2CCn3nc(COc4ccccn4)cc3C2=O)ccc1F [Example 205] | 6.41 | 389 nM | 55% | –
27 | CC1Cn2nc(COc3ccc(F)cc3)cc2C(=O)N1c1ccc(F)cc1 (stereo not shown) [Example 245] | 6.86 | 138 nM | 74% | –
28 | CC1CN(c2ccc(F)cn2)C(=O)c2cc(COc3ccccc3)nn21 (single isomer, unassigned) [Example 132] | 7.00 | 100 nM | 68% | –
29 | CC1CN(c2ccc(F)cc2)C(=O)c2cc(COc3ccc(F)cc3)nn21 (single isomer, unassigned) [Example 238] | 6.87 | 135 nM | 67% | –
30 | Cc1ccc(N2CCn3nc(COc4ccccc4)cc3C2=O)nc1N(C)C [Example 292] | 7.47 | 34 nM | 66% | –
31 | COc1cc(N2CCn3nc(COc4ccccc4)cc3C2=O)ncn1 [Example 351] | 6.59 | 260 nM | 66% | –
32 | O=C1c2cc(COc3ccccc3)nn2CCN1c1ccccn1 [Example 12] | 6.06 | 871 nM | 69% | –
33 | CC(C)CN1CCn2nc(COc3ccccc3)cc2C1=O [Example 26] | 6.98 | 105 nM | 75% | –
34 | O=C1c2cc(COc3ccncn3)nn2CCN1c1ccc(F)cc1 [Example 199] | 5.43 | 3720 nM | 60% | –
35 | Cc1ccc(N2CCn3nc(COc4ccccc4)cc3C2=O)cc1F [Example 62] | 7.27 | 53 nM | 60% | –
36 | Cc1cccnc1N1CCn2nc(COc3ccccc3)cc2C1=O [Example 30] | – | 537 nM | – | 75%
37 | COc1ccc(N2CCn3nc(COc4ccccc4)cc3C2=O)nn1 [Example 89] | <5.00 | > 10000 nM | 75% | –
38 | COc1cc(N2CCn3nc(COc4ccccc4)cc3C2=O)nnc1Cl [Example 296] | – | 620 nM | – | 50%
39 | Cn1cc2ccc(N3CCn4nc(COc5ccccc5)cc4C3=O)cc2n1 [Example 366] | 6.07 | 850 nM | 62% | –
40 | Cc1nccc(OCc2cc3n(n2)CCN(c2ccc(F)cc2)C3=O)n1 [Example 182] | 5.49 | 3240 nM | 36% | –
41 | O=C1c2nc(COc3ccccc3)nn2CCN1c1ccc(F)cc1 [Example 5] | 5.59 | 2570 nM | 73% | –
42 | CN(C)c1cccnc1N1CCn2nc(COc3ccccc3)cc2C1=O [Example 289] | – | 1200 nM | – | 65%
43 | O=C1c2cc(COc3ccc(F)cc3)nn2CCN1c1ccc(F)cc1 [Example 165] | 6.98 | 105 nM | 71% | –
44 | Cc1ccnc(OCc2cc3n(n2)CCN(c2ccc(F)cc2)C3=O)n1 [Example 186] | <4.52 | > 30200 nM | 30% | –
45 | CC1Cn2nc(COc3ccccc3)cc2C(=O)N1c1ccc(F)cc1 (stereo not shown) [Example 157] | 6.24 | 575 nM | 63% | –
46 | O=C1c2cc(COc3ccccc3)nn2CCN1c1cnc2cccnn12 [Example 370] | – | 1100 nM | – | 68%
47 | O=C1c2cc(COc3ccncc3)nn2CCN1c1ccc(F)cn1 [Example 176] | 5.75 | 1780 nM | 64% | –
48 | CC1Cn2nc(COc3ccccc3)cc2C(=O)N1 (stereo not shown) [Example 255] | <5.00 | > 10000 nM | 46% | –
